The molecules below were run against T1, HCV1b NS5B polymerase delta 21 (Hepatitis C virus genotype 1b, UniProt P26663) (assay: RNA-dependent RNA HCV NS5B (polymerase) assay and IC50 determination). Settings: not given.
T1 construct: purified HCV1b NS5B polymerase delta 21
Assay type: biochemical
Protocol: Example 212—RNA-Dependent RNA HCV NS5B (Polymerase) Assay and IC50 Determination
In vitro RNA-dependent RNA polymerase activity was determined in a reaction mixture (50 μL) containing 50 mM Tris-HCl, pH 7.5, 5 mM MgCl2, 1 mM dithiothreitol, 0.5% Triton® X-100, 10 μM of UTP, 0.1-0.5 μCi of α-^32P UTP (Perkin Elmer Life Sciences), 1 μg of polyA:U16 (Midland Oligo), and 0.6 μg of purified HCV1b NS5B polymerase delta 21. Different concentrations of compounds were added to the reaction mixtures. The reaction was carried out at RT (23° C.) for 60 min and then stopped by the addition of 100 μL of 50 mM EDTA. The reaction mixtures were filtered through either a DE81 membrane or a positively charged nylon membrane, and the membranes were then extensively washed with 30 mM sodium citrate, pH 7.0 and 300 mM NaCl. The radiolabeled RNA products were quantitated using a Storm™ PhosphorImager™ (GE life Sciences). IC50 values were calculated using GraFit 6 and GraphPad Prism 5 from triplicate assays.

T1 sequence (P26663 2420-2989): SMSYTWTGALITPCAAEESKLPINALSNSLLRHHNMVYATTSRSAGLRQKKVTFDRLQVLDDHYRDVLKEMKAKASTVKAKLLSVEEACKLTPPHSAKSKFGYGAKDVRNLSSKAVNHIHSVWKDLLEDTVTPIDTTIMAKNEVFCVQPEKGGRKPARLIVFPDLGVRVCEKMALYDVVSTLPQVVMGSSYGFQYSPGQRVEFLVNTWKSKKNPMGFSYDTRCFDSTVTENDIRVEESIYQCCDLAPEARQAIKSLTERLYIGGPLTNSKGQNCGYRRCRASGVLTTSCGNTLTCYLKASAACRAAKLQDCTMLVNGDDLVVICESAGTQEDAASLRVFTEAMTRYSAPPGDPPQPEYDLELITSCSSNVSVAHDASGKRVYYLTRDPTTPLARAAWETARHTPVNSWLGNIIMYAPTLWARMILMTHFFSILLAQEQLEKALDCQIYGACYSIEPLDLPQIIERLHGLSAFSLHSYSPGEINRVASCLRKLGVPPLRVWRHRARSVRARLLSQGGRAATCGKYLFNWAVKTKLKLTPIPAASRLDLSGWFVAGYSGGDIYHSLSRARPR

Q: Which IC50 does the source give for `COc1cc(-c2cc(C3=C(C4CCC(C)CC4)CN(C)CC3)c(C(=O)O)s2)ccc1NC(=O)c1cscn1` (centres unmarked) [Example 179, 5-(3-methoxy-4-(thiazole-4-carboxamido)phenyl)-3-(1-methyl-5-(4-methylcyclohexyl)-1,2,3,6-tetrahydropyridin-4-yl)thiophene-2-carboxylic acid] here?
A: < 3 µM

Q: Which IC50 does the source give for `CCc1cc(-c2cc(C3=C(C4CCC(C)CC4)CN(C)CC3)c(C(=O)O)s2)ccc1NC(=O)c1cscn1` (centres unmarked) [Example 181, 5-(3-ethyl-4-(thiazole-4-carboxamido)phenyl)-3-(1-methyl-5-(4-methylcyclohexyl)-1,2,3,6-tetrahydropyridin-4-yl)thiophene-2-carboxylic acid] here?
A: < 3 µM

Q: With `CC1CCC(C2=C(c3cc(-c4ccc(NC(=O)c5cscn5)c(Cl)c4)sc3C(=O)O)CCN(C)C2)CC1` (centres unmarked) [Example 182, 5-(3-chloro-4-(thiazole-4-carboxamido)phenyl)-3-(1-methyl-5-(4-methylcyclohexyl)-1,2,3,6-tetrahydropyridin-4-yl)thiophene-2-carboxylic acid] as the molecule, how does the IC50 read?
A: < 3 µM

Q: `COc1ccn2nc(-c3ccc(-c4cc(C5=C(C6CCC(C)CC6)CN(C)CC5)c(C(=O)O)s4)cc3)cc2n1` (centres unmarked) [Example 184, 5-(4-(5-methoxypyrazolo[1,5-a]pyrimidin-2-yl)phenyl)-3-(1-methyl-5-(4-methylcyclohexyl)-1,2,3,6-tetrahydropyridin-4-yl)thiophene-2-carboxylic acid] was tested. Which IC50 did it give?
A: < 3 µM

Q: Which IC50 does the source give for `CC1CCC(C2=C(c3cc(-c4ccc(NC(=O)c5cscn5)cc4)sc3C(=O)O)CCN(Cc3cnn(C)c3)C2)CC1` (centres unmarked) [Example 186, 3-(1-((1-methyl-1H-pyrazol-4-yl)methyl)-5-(4-methylcyclohexyl)-1,2,3,6-tetrahydropyridin-4-yl)-5-(4-(thiazole-4-carboxamido)phenyl)thiophene-2-carboxylic acid] here?
A: < 3 µM

Q: `Cc1cc(-c2cc(C3=C(C4CCC(C)CC4)CN(C)CC3)c(C(=O)O)s2)ccc1-c1cc2ncccn2n1` (centres unmarked) [Example 187, 5-(3-methyl-4-(pyrazolo[1,5-a]pyrimidin-2-yl)phenyl)-3-(1-methyl-5-(4-methylcyclohexyl)-1,2,3,6-tetrahydropyridin-4-yl)thiophene-2-carboxylic acid] was tested. Which IC50 did it give?
A: < 3 µM

Q: For `CC1CCC(C2=C(c3cc(-c4ccc(NC(=O)c5cscn5)cc4)sc3C(=O)O)CN(CC3COC(C)(C)O3)CC2)CC1` (centres unmarked) [Example 189, 3-(1-((2,2-dimethyl-1,3-dioxolan-4-yl)methyl)-4-(4-methylcyclohexyl)-1,2,5,6-tetrahydropyridin-3-yl)-5-(4-(thiazole-4-carboxamido)phenyl)thiophene-2-carboxylic acid], which IC50 is on record?
A: < 3 µM

The molecules below were run on HCV1b replicon (assay: HCV replicon assay (Huh-7 cell line with HCV1b replicon containing luciferase reporter) and EC50 determination). Settings: Hepatitis C virus; Table 1; Huh-7 HCV1b replicon luciferase reporter, 72 hr, triplicate.
Assay type: cell-based
Protocol: Example 213—HCV Replicon Assay and EC50 Determination
The antiviral activity of compounds against hepatitis C virus was determined by a hepatitis C virus replicon reporter cell line developed by Bartenschlager (Lohmann et al., Science 1999, 285:110-113; Bartenschlager et al., Antiviral Res 2003, 60:91-102). This cell-based assay utilized a liver cell carcinoma (Huh-7) cell line stably transformed with an HCV1b replicon containing a luciferase reporter gene. Varied concentrations of compounds were added to the reporter cell line, and further incubated at 37° C. for 72 hr in DMEM supplemented with 10% FCS. The inhibitory effects of experimental compounds or the reference compound, interferon alpha (INFα), on HCV replication were measured by luciferase activity using the Britelite™ plus luminescence reporter gene kit (Perkin Elmer, Shelton, Conn.). The Britelite plus reagent was added to the 96-well plates containing the HCV reporter cells, and luminescence was measured within 15 min using a Wallac 1450 Microbeta® Trilux liquid scintillation counter. EC50 values were calculated using GraFit 6 and GraphPad Prism 5 from triplicate HCV replicon assays.

Q: How did the EC50 turn out when `Cc1cc(-c2cc(C3=C(C4CCC(C)CC4)CN(C)CC3)c(C(=O)O)s2)ccc1NC(=O)c1cscn1` (centres unmarked) [Example 178, 5-(3-methyl-4-(thiazole-4-carboxamido)phenyl)-3-(1-methyl-5-(4-methylcyclohexyl)-1,2,3,6-tetrahydropyridin-4-yl)thiophene-2-carboxylic acid] was run?
A: < 3 µM

Q: For `CC1CCC(C2=C(c3cc(-c4ccc(NC(=O)c5cscn5)c(C#N)c4)sc3C(=O)O)CCN(C)C2)CC1` (centres unmarked) [Example 180, 5-(3-cyano-4-(thiazole-4-carboxamido)phenyl)-3-(1-methyl-5-(4-methylcyclohexyl)-1,2,3,6-tetrahydropyridin-4-yl)thiophene-2-carboxylic acid], which EC50 is on record?
A: < 3 µM

Q: `CC1CCC(C2=C(c3cc(-c4ccc(NC(=O)c5cscn5)c(C(F)(F)F)c4)sc3C(=O)O)CCN(C)C2)CC1` (centres unmarked) [Example 183, 3-(1-methyl-5-(4-methylcyclohexyl)-1,2,3,6-tetrahydropyridin-4-yl)-5-(4-(thiazole-4-carboxamido)-3-(trifluoromethyl)phenyl)thiophene-2-carboxylic acid] was tested. Which EC50 did it give?
A: < 3 µM

Q: `CC1CCC(C2=C(c3cc(-c4ccc(-c5cc6n(C)c(=O)ccn6n5)cc4)sc3C(=O)O)CCN(C)C2)CC1` (centres unmarked) [Example 185, 3-(1-methyl-5-(4-methylcyclohexyl)-1,2,3,6-tetrahydropyridin-4-yl)-5-(4-(4-methyl-5-oxo-4,5-dihydropyrazolo[1,5-a]pyrimidin-2-yl)phenyl)thiophene-2-carboxylic acid] was tested. Which EC50 did it give?
A: < 3 µM

Q: With `Cc1cc(-c2cc(C3=C(C4CCC(C)CC4)CCN(C)C3)c(C(=O)O)s2)ccc1NC(=O)c1cscn1` (centres unmarked) [Example 196, 3-(1-methyl-4-(4-methylcyclohexyl)-1,2,5,6-tetrahydropyridin-3-yl)-5-(3-methyl-4-(thiazole-4-carboxamido)phenyl)thiophene-2-carboxylic acid] as the molecule, how does the EC50 read?
A: < 3 µM

Q: For `Cc1cc(-c2cc(C3=C(C4CCC(C)CC4)CCN(CCO)C3)c(C(=O)O)s2)ccc1NC(=O)c1cscn1` (centres unmarked) [Example 197, 3-(1-(2-hydroxyethyl)-4-(4-methylcyclohexyl)-1,2,5,6-tetrahydropyridin-3-yl)-5-(3-methyl-4-(thiazole-4-carboxamido)phenyl)thiophene-2-carboxylic acid], which EC50 is on record?
A: < 3 µM

Q: For `CN1CCC(c2cc(-c3ccc(NC(=O)c4cscn4)cc3)sc2C(=O)O)=C(c2ccc(Cl)cc2Cl)C1` [Example 201, 3-(5-(2,4-dichlorophenyl)-1-methyl-1,2,3,6-tetrahydropyridin-4-yl)-5-(4-(thiazole-4-carboxamido)phenyl)thiophene-2-carboxylic acid], which EC50 is on record?
A: < 3 µM

Q: Which EC50 does the source give for `Cc1ccc(C2=C(c3cc(-c4ccc(NC(=O)c5cscn5)cc4)sc3C(=O)O)CCN(C)C2)cc1` [Example 202, 3-(1-methyl-5-(p-tolyl)-1,2,3,6-tetrahydropyridin-4-yl)-5-(4-(thiazole-4-carboxamido)phenyl)thiophene-2-carboxylic acid] here?
A: < 3 µM

Q: With `CC1CCC(C2=C(c3cc(-c4ccc(NC(=O)c5cscn5)nc4)sc3C(=O)O)CCN(C)C2)CC1` (centres unmarked) [Example 204, 3-(1-methyl-5-(4-methylcyclohexyl)-1,2,3,6-tetrahydropyridin-4-yl)-5-(6-(thiazole-4-carboxamido)pyridin-3-yl)thiophene-2-carboxylic acid] as the molecule, how does the EC50 read?
A: < 3 µM

Same assay, conditions: Hepatitis C virus; Table 2; Huh-7 HCV1b replicon luciferase reporter, 72 hr, triplicate

Q: For `CC1CCC(C2=C(c3cc(-c4ccc(NC(=O)c5cscn5)cc4)sc3C(=O)O)CN(CCO)CC2)CC1` (centres unmarked) [Example 188, 3-(1-(2-hydroxyethyl)-4-(4-methylcyclohexyl)-1,2,5,6-tetrahydropyridin-3-yl)-5-(4-(thiazole-4-carboxamido)phenyl)thiophene-2-carboxylic acid], which EC50 is on record?
A: < 3 µM

Q: With `CC1CCC(C2=C(c3cc(-c4ccc(-c5cc6ncccn6n5)cc4)sc3C(=O)O)CN(CCO)CC2)CC1` (centres unmarked) [Example 191, 3-(1-(2-hydroxyethyl)-4-(4-methylcyclohexyl)-1,2,5,6-tetrahydropyridin-3-yl)-5-(4-(pyrazolo[1,5-a]pyrimidin-2-yl)phenyl)thiophene-2-carboxylic acid] as the molecule, how does the EC50 read?
A: < 3 µM

Q: Which EC50 does the source give for `CC1CCC(C2=C(c3cc(-c4ccc(-c5cc6ncccn6n5)cc4)sc3C(=O)O)CN(CC(O)CO)CC2)CC1` (centres unmarked) [Example 192, 3-(1-(2,3-dihydroxypropyl)-4-(4-methylcyclohexyl)-1,2,5,6-tetrahydropyridin-3-yl)-5-(4-(pyrazolo[1,5-a]pyrimidin-2-yl)phenyl)thiophene-2-carboxylic acid] here?
A: < 3 µM

Q: With `CC1CCC(C2=C(c3cc(-c4ccc(NC(=O)c5cscn5)cc4)sc3C(=O)O)CN(Cc3cnn(C)c3)CC2)CC1` (centres unmarked) [Example 193, 3-(1-((1-methyl-1H-pyrazol-4-yl)methyl)-4-(4-methylcyclohexyl)-1,2,5,6-tetrahydropyridin-3-yl)-5-(4-(thiazole-4-carboxamido)phenyl)thiophene-2-carboxylic acid] as the molecule, how does the EC50 read?
A: < 3 µM

Q: How did the EC50 turn out when `CC1CCC(C2=C(c3cc(-c4ccc(-c5cc6ncccn6n5)cc4)sc3C(=O)O)CN(Cc3cnn(C)c3)CC2)CC1` (centres unmarked) [Example 194, 3-(1-((1-methyl-1H-pyrazol-4-yl)methyl)-4-(4-methylcyclohexyl)-1,2,5,6-tetrahydropyridin-3-yl)-5-(4-(pyrazolo[1,5-a]pyrimidin-2-yl)phenyl)thiophene-2-carboxylic acid] was run?
A: < 3 µM

Q: For `Cc1nn(C)cc1CN1CCC(C2CCC(C)CC2)=C(c2cc(-c3ccc(NC(=O)c4cscn4)cc3)sc2C(=O)O)C1` (centres unmarked) [Example 195, 3-(1-((1,3-dimethyl-1H-pyrazol-4-yl)methyl)-4-(4-methylcyclohexyl)-1,2,5,6-tetrahydropyridin-3-yl)-5-(4-(thiazole-4-carboxamido)phenyl)thiophene-2-carboxylic acid], which EC50 is on record?
A: < 3 µM

Q: For `CN1CCC(c2cc(-c3ccc(NC(=O)c4cscn4)cc3)sc2C(=O)O)=C(C2CCCCC2)C1` [Example 205, 3-(5-Cyclohexyl-1-methyl-1,2,3,6-tetrahydro-pyridin-4-yl)-5-{4-[(thiazole-4-carbonyl)-amino]-phenyl}-thiophene-2-carboxylic acid], which EC50 is on record?
A: < 3 µM
